Series [1] deals with HER-2/neu positive breast cancer. Description: Example I: adjuvant therapy after mastectomy. In kind it is in vivo, human. As to conditions: patient, oral 5 mg/kg twice per day for five years after mastectomy.
The test system is the same in series [2]. Description: Example II: adjuvant therapy with PPARγ ligand and HERCEPTIN
In kind it is in vivo, human. As to conditions: patient, oral 5 mg/kg twice daily for one year, with HERCEPTIN 250 mg IV loading then 10 weekly doses of 125 mg.

The test system of series [3] is HER-2/neu positive breast cancer metastasized to bone. Description: Example IV: breast cancer metastasized to bone. Format: in vivo, human. As to conditions: patient after failure of prior chemotherapy, oral 5 mg/kg twice daily plus HERCEPTIN
As to the method:
After 90 days, oral cyclophosphamide at a dose of 3 mg/kg/day and doxorubicin administered intravenously weekly at a dose of 20 mg/m^2, are added to the drug regimen.

Series [4] relates to non-small cell lung carcinoma where EGFR is overexpressed. The series is described as follows: Example VI: non-small cell lung carcinoma metastasized to liver. Format: in vivo, human. As to conditions: patient, oral 5 mg/kg twice daily. On the procedure: After one month, PPARγ ligand administration is continued in combination with infusion of cisplatin every four weeks at 60 mg/m^2 for 12 more weeks.

Series [5] has as its system head and neck carcinoma where EGFR is overexpressed. The series is described as follows: Example VII: head and neck carcinoma. Format: in vivo, human. As to conditions: after the 12 weeks of CETUXIMAB and cisplatin, oral 5 mg/kg twice daily for 12 weeks. On the procedure:
Concurrently cisplatin is infused every four weeks at 60 mg/m^2.

Series [6] in a line: physchem. As to conditions: ph 7.4 buffer, pH 7.4, aqueous buffer.

Each structure is given as a SMILES string. ≈ marks a conversion by molar mass, not a printed value.

Regarding `COC(=O)c1ccccc1N[C@@H](Cc1ccc(OCCc2nc(-c3ccccc3)oc2C)cc1)C(=O)O` [GW7845, (S)-2-(1-carboxy-2-{4-[2-(5-methyl-2-phenyloxazol-4-yl)ethoxy]phenyl}ethylamino)benzoic acid methyl ester], the “recurrence of breast cancer” value in series [1] is “recurrence of breast cancer does not occur”; in series [2] it was “Recurrence of breast cancer does not occur”. Further, the tumor burden entry in series [3] is “reduced tumor burden”; in series [4], “reduced tumor burden”; in series [5], “further reduced tumor burden”. Further, the solubility in series [6] amounted to 300 µg/mL (≈ 599 µM).

The values are drawn from US6291496A, “Treating cancers associated with overexpression of class I family of receptor tyrosine kinases” (priority 1999, dated 2001).
